Experimental data from Sander's compilation of Henry's law constants.

Tests used:
[1] = Henry solubility constant Hcp at 298.15 K (mol/(m3 Pa))
[2] = Henry solubility constant Hcp at 293 K (mol/(m3 Pa))
[3] = reference: Bissonette et al. (1990)
[4] = reference: Munz and Roberts (1987)
[5] = reference: Warner et al. (1980)
[6] = reference: Chiang et al. (1998)
[7] = reference: Pearson and McConnell (1975)
[8] = reference: Yurteri et al. (1987)
[9] = reference: Dohnal and Fenclová (1995)
[10] = reference: Sheikheldin et al. (2001)
[11] = reference: Bamford et al. (1999b)
[12] = reference: De Maagd et al. (1998)
[13] = reference: Schuhfried et al. (2011)
[14] = reference: Vitenberg et al. (1975)
[15] = reference: Blatchley et al. (1992)
[16] = reference: Mackay et al. (1979)
[17] = reference: Kames and Schurath (1995)
[18] = reference: Wolfenden and Williams (1983)

In the case of `CC(Cl)(Cl)Cl` [1,1,1-trichloroethane], the “Henry solubility constant Hcp” value [1, 3] is reported as 0.00051, the “Henry solubility constant Hcp” value ([1]; reference: Chen et al. (2012)) is reported as 0.00054 and the “Henry solubility constant Hcp” value ([1]; reference: Ervin et al. (1980)) is reported as 0.00027. The “Henry solubility constant Hcp” value ([1]; reference: Gossett (1987)) was 0.00059, the “Henry solubility constant Hcp” value ([1]; reference: Gossett et al. (1985)) was 0.00057 and the “Henry solubility constant Hcp” value ([1]; reference: Hunter-Smith et al. (1983)) was 0.00076. For the same molecule, the “Henry solubility constant Hcp” value ([1]; reference: Lincoff and Gossett (1984)) was 0.00059, the “Henry solubility constant Hcp” value [1, 4] was 0.00058 and the “Henry solubility constant Hcp” value ([1]; reference: Robbins et al. (1993)) was 0.00055. The “Henry solubility constant Hcp” value ([1]; reference: Turner et al. (1996)) was 0.00048, the “Henry solubility constant Hcp” value ([1]; reference: Vane and Giroux (2000)) was 0.00062 and the “Henry solubility constant Hcp” value [1, 5] was 0.002. For the same molecule, the “Henry solubility constant Hcp at 293 K” value [2, 6] was 0.00071, the “Henry solubility constant Hcp at 293 K” value [2, 7] was 0.00029 and the “Henry solubility constant Hcp at 293 K” value [2, 8] was 0.00063.

In the case of `C=C(Cl)Cl` [1,1-dichloroethene], the “Henry solubility constant Hcp” value [1, 3] is reported as 0.00034, the “Henry solubility constant Hcp” value ([1]; reference: Ervin et al. (1980)) is reported as 0.00014 and the “Henry solubility constant Hcp” value ([1]; reference: Gossett (1987)) is reported as 0.00038. The “Henry solubility constant Hcp” value [1, 5] was 0.00066, the “Henry solubility constant Hcp at 293 K” value [2, 6] was 0.00044 and the “Henry solubility constant Hcp at 293 K” value [2, 7] was 6.6e-05. For the same molecule, the “Henry solubility constant Hcp at 293 K” value [2, 8] was 0.00013.

With `OCCO` [1,2-ethanediol] the “Henry solubility constant Hcp” value ([1]; reference: Butler and Ramchandani (1935)) was 160 and the “Henry solubility constant Hcp at 293 K” value ([2]; reference: Bone et al. (1983)) was 4000.

In the case of `Clc1ccc(Cl)cc1` [1,4-dichlorobenzene], the “Henry solubility constant Hcp” value ([1]; reference: Li et al. (2008)) is reported as 0.0033, the “Henry solubility constant Hcp” value [1, 5] is reported as 0.0036 and the “Henry solubility constant Hcp at 293 K” value [2, 6] is reported as 0.0025. For the same molecule, the “Henry solubility constant Hcp at 293 K” value [2, 8] was 0.0052.

In the case of `Cc1cccc(O)c1C` [1-hydroxy-2,3-dimethylbenzene], the “Henry solubility constant Hcp” value [1, 9] is reported as 10 and the “Henry solubility constant Hcp at 293 K” value [2, 10] is reported as 9.3.

With `Cc1ccc(O)c(C)c1` [1-hydroxy-2,4-dimethylbenzene] the “Henry solubility constant Hcp” value [1, 9] was 4.9 and the “Henry solubility constant Hcp at 293 K” value [2, 10] was 6.6.

With `c1ccc2c(c1)Cc1ccccc1-2` [2,3-benzindene] the “Henry solubility constant Hcp” value [1, 11] was 0.079, the “Henry solubility constant Hcp” value [1, 5] was 0.084 and the “Henry solubility constant Hcp at 293 K” value [2, 12] was 0.15.

For `Oc1ccc(Cl)cc1Cl` [2,4-dichlorophenol], the “Henry solubility constant Hcp” value ([1]; reference: Tabai et al. (1997)) was 6.6 and the “Henry solubility constant Hcp at 293 K” value [2, 10] was 3.4.

For `Oc1ccccc1Cl` [2-hydroxychlorobenzene], the “Henry solubility constant Hcp” value ([1]; reference: Tabai et al. (1997)) was 3.6 and the “Henry solubility constant Hcp at 293 K” value [2, 10] was 1.5.

With `CN(C)N=O` [N-nitrosodimethylamine] the “Henry solubility constant Hcp” value ([1]; reference: Klein (1982)) was 6.1, the “Henry solubility constant Hcp” value ([1]; reference: Thompson et al. (2018)) was 0.29 and the “Henry solubility constant Hcp at 293 K” value ([2]; reference: Haruta et al. (2011)) was 4.1.

For `c1ccc2c(c1)-c1cccc3cccc-2c13` [benzo[jk]fluorene], the “Henry solubility constant Hcp at 293 K” value [2, 12] was 0.91.

With `CCOP(=S)(OCC)Oc1nc(Cl)c(Cl)cc1Cl` [chlorpyrifos] the “Henry solubility constant Hcp at 293 K” value ([2]; reference: Rice et al. (1997b)) was 3.1.

For `FC(F)(Cl)Cl` [dichlorodifluoromethane], the “Henry solubility constant Hcp” value [1, 4] was 3.1e-05, the “Henry solubility constant Hcp” value ([1]; reference: Park et al. (1982)) was 2.9e-05 and the “Henry solubility constant Hcp” value ([1]; reference: Reichl (1995)) was 3e-05. The “Henry solubility constant Hcp” value ([1]; reference: Scharlin and Battino (1994)) was 2.9e-05, the “Henry solubility constant Hcp” value ([1]; reference: Scharlin and Battino (1995)) was 2.9e-05 and the “Henry solubility constant Hcp” value ([1]; reference: Warner and Weiss (1985)) was 2.9e-05. The “Henry solubility constant Hcp at 293 K” value [2, 7] was 2.5e-05.

With `ClC1=C(Cl)[C@]2(Cl)[C@@H]3[C@@H]4C[C@@H]([C@H]5O[C@@H]45)[C@@H]3[C@@]1(Cl)C2(Cl)Cl` [dieldrin] the “Henry solubility constant Hcp” value [1, 5] was 0.17 and the “Henry solubility constant Hcp at 293 K” value ([2]; reference: Slater and Spedding (1981)) was 0.34.

With `CCSSCC` [diethyl disulfide] the “Henry solubility constant Hcp” value [1, 13] was 0.0037 and the “Henry solubility constant Hcp at 293 K” value [2, 14] was 0.0047.

With `CSC` [dimethyl sulfide] the “Henry solubility constant Hcp” value ([1]; reference: Barcellos da Rosa et al. (2003)) was 0.0064, the “Henry solubility constant Hcp” value ([1]; reference: Bruneel et al. (2016)) was 0.0047 and the “Henry solubility constant Hcp” value ([1]; reference: Coquelet and Richon (2005)) was 0.0052. The “Henry solubility constant Hcp” value ([1]; reference: Dacey et al. (1984)) was 0.0055, the “Henry solubility constant Hcp” value ([1]; reference: De Bruyn et al. (1995b)) was 0.0047 and the “Henry solubility constant Hcp” value ([1]; reference: Gershenzon et al. (2001)) was 0.0047. The “Henry solubility constant Hcp” value ([1]; reference: Iliuta and Larachi (2005a)) was 0.0055, the “Henry solubility constant Hcp” value ([1]; reference: Lovelock et al. (1972)) was 0.0016 and the “Henry solubility constant Hcp” value ([1]; reference: Marin et al. (1999)) was 0.016. The “Henry solubility constant Hcp” value ([1]; reference: Pollien et al. (2003)) was 0.0049, the “Henry solubility constant Hcp” value [1, 13] was 0.0046 and the “Henry solubility constant Hcp” value ([1]; reference: Straver and de Loos (2005)) was 0.0049. The “Henry solubility constant Hcp” value ([1]; reference: Wong and Wang (1997)) was 0.0042 and the “Henry solubility constant Hcp at 293 K” value [2, 14] was 0.0061.

In the case of `CC#N` [ethanenitrile], the “Henry solubility constant Hcp” value ([1]; reference: Bebahani et al. (2002)) is reported as 0.49, the “Henry solubility constant Hcp” value ([1]; reference: Benkelberg et al. (1995)) is reported as 0.53 and the “Henry solubility constant Hcp” value ([1]; reference: Hamm et al. (1984)) is reported as 0.53. The “Henry solubility constant Hcp” value ([1]; reference: Ji and Evans (2007)) was 0.52, the “Henry solubility constant Hcp” value ([1]; reference: Snider and Dawson (1985)) was 0.48 and the “Henry solubility constant Hcp at 293 K” value ([2]; reference: Yu (1992)) was 0.082.

For `NCCO` [ethanolamine], the “Henry solubility constant Hcp” value ([1]; reference: Kim et al. (2008)) was 4200 and the “Henry solubility constant Hcp at 293 K” value ([2]; reference: Bone et al. (1983)) was 60000.

With `ClC(Cl)=C(Cl)C(Cl)=C(Cl)Cl` [hexachlorobutadiene] the “Henry solubility constant Hcp” value [1, 5] was 0.00096 and the “Henry solubility constant Hcp at 293 K” value [2, 7] was 0.0004.

For `OO` [hydrogen peroxide], the “Henry solubility constant Hcp” value ([1]; reference: Huang and Chen (2010)) was 1100, the “Henry solubility constant Hcp” value ([1]; reference: Hwang and Dasgupta (1985)) was 670 and the “Henry solubility constant Hcp” value ([1]; reference: Lind and Kok (1994)) was 990. For the same molecule, the “Henry solubility constant Hcp” value ([1]; reference: O’Sullivan et al. (1996)) was 820, the “Henry solubility constant Hcp” value ([1]; reference: Rivera-Rios (2018)) was 1200 and the “Henry solubility constant Hcp” value ([1]; reference: Zhou and Lee (1992)) was 850. For the same molecule, the “Henry solubility constant Hcp at 293 K” value ([2]; reference: Yoshizumi et al. (1984)) was 1400.

For `OBr` [hypobromous acid], the “Henry solubility constant Hcp at 293 K” value [2, 15] was over 19 and the “Henry solubility constant Hcp at 293 K” value ([2]; reference: McCoy et al. (1990)) was 19.

In the case of `OCl` [hypochlorous acid], the “Henry solubility constant Hcp” value ([1]; reference: Hanson and Ravishankara (1991)) is reported as 4.7, the “Henry solubility constant Hcp” value ([1]; reference: Holzwarth et al. (1984)) is reported as 6 and the “Henry solubility constant Hcp” value ([1]; reference: Imagawa (1950)) is reported as 12. For the same molecule, the “Henry solubility constant Hcp” value ([1]; reference: Ourisson and Kastner (1939)) was 6.4, the “Henry solubility constant Hcp at 293 K” value [2, 15] was 9.1 and the “Henry solubility constant Hcp at 293 K” value ([2]; reference: McCoy et al. (1990)) was 9.

With `COP(=S)(OC)Oc1ccc([N+](=O)[O-])cc1` [methylparathion] the “Henry solubility constant Hcp” value ([1]; reference: Metcalfe et al. (1980)) was 99 and the “Henry solubility constant Hcp at 293 K” value ([2]; reference: Rice et al. (1997b)) was 260.

In the case of `CCc1cccc(C)c1N(C(=O)CCl)C(C)COC` (stereo not given) [metolachlor], the “Henry solubility constant Hcp” value ([1]; reference: Feigenbrugel et al. (2004a)) is reported as 210, the “Henry solubility constant Hcp” value ([1]; reference: Lau et al. (1995)) is reported as 570 and the “Henry solubility constant Hcp at 293 K” value ([2]; reference: Rice et al. (1997b)) is reported as 130.

In the case of `c1ccc2ccccc2c1` [naphthalene], the “Henry solubility constant Hcp” value ([1]; reference: Alaee et al. (1996)) is reported as 0.023, the “Henry solubility constant Hcp” value ([1]; reference: Bobadilla et al. (2003)) is reported as 0.04 and the “Henry solubility constant Hcp” value [1, 16] is reported as 0.02. For the same molecule, the “Henry solubility constant Hcp” value ([1]; reference: Schwarz and Wasik (1977)) was 0.022, the “Henry solubility constant Hcp” value ([1]; reference: Southworth (1979)) was 0.018 and the “Henry solubility constant Hcp” value ([1]; reference: Webster et al. (1985)) was 0.026. For the same molecule, the “Henry solubility constant Hcp at 293 K” value [2, 12] was 0.022 and the “Henry solubility constant Hcp at 293 K” value [2, 8] was 0.027.

In the case of `CCCC(=O)OO[N+](=O)[O-]` [nitro butaneperoxoate], the “Henry solubility constant Hcp at 293 K” value [2, 17] is reported as 0.023.

In the case of `CC(C)C(=O)OO[N+](=O)[O-]` [peroxy-isobutyryl nitrate], the “Henry solubility constant Hcp at 293 K” value [2, 17] is reported as 0.0099.

For `CCC(=O)OO[N+](=O)[O-]` [peroxypropionyl nitrate], the “Henry solubility constant Hcp” value ([1]; reference: Easterbrook et al. (2023)) was 0.016 and the “Henry solubility constant Hcp at 293 K” value [2, 17] was 0.029.

For `c1ccc2c(c1)ccc1ccccc12` [phenanthrene], the “Henry solubility constant Hcp” value ([1]; reference: Alaee et al. (1996)) was 0.21, the “Henry solubility constant Hcp” value [1, 11] was 0.16 and the “Henry solubility constant Hcp” value [1, 16] was 0.25. For the same molecule, the “Henry solubility constant Hcp” value ([1]; reference: Odabasi et al. (2006)) was 0.27, the “Henry solubility constant Hcp” value ([1]; reference: Southworth (1979)) was 0.18 and the “Henry solubility constant Hcp at 293 K” value [2, 12] was 0.34.

In the case of `COP(=O)(OC)OC` [phosphoric acid, trimethyl ester], the “Henry solubility constant Hcp at 293 K” value [2, 18] is reported as 1400.

For `CCOP(=O)(OCC)OCC` [triethylphosphate], the “Henry solubility constant Hcp at 293 K” value [2, 18] was 270.

For `CCCOP(=O)(OCCC)OCCC` [tripropyl phosphate], the “Henry solubility constant Hcp at 293 K” value [2, 18] was 15.
